Measured values published in ChEMBL document CHEMBL5723584 (2023).

Experiments:
Conditions in all cases: Compound concentration 1.0 uM
[1] = target: Testis-specific serine/threonine-protein kinase 2 (Homo sapiens) (UniProt Q96PF2); assay: activity of TSSK2(h) at 1.0 µM in the Eurofins Kinase panel
[2] = target: Serine/threonine-protein kinase Nek6 (Homo sapiens) (UniProt Q9HC98); assay: activity of NEK6(h) at 1.0 µM in the Eurofins Kinase panel
[3] = target: Dual specificity mitogen-activated protein kinase kinase 1 (Homo sapiens) (UniProt Q02750); assay: activity of MEK1(h) at 1.0 µM in the Eurofins Kinase panel
[4] = target: Casein kinase I isoform gamma-2 (Homo sapiens) (UniProt P78368); assay: activity of CK1gamma2(h) at 1.0 µM in the Eurofins Kinase panel
Sequence of Casein kinase I isoform gamma-2 (Homo sapiens) (P78368 whole entry, looked up, canonical isoform): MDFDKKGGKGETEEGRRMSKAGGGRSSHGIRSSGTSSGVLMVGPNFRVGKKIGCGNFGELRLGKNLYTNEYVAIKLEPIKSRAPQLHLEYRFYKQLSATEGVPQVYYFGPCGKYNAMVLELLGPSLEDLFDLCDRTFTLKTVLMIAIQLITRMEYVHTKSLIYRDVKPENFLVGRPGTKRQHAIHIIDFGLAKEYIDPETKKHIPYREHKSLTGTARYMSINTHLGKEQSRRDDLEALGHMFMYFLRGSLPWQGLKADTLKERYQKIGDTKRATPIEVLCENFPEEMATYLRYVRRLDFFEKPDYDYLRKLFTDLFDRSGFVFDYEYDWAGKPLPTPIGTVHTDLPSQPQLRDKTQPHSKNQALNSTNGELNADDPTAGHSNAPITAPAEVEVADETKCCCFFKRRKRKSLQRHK

[5] = target: Serine/threonine-protein kinase D1 (Homo sapiens) (UniProt Q15139); assay: activity of PKCmu(h) at 1.0 µM in the Eurofins Kinase panel
Sequence of Serine/threonine-protein kinase D1 (Homo sapiens) (Q15139 whole entry): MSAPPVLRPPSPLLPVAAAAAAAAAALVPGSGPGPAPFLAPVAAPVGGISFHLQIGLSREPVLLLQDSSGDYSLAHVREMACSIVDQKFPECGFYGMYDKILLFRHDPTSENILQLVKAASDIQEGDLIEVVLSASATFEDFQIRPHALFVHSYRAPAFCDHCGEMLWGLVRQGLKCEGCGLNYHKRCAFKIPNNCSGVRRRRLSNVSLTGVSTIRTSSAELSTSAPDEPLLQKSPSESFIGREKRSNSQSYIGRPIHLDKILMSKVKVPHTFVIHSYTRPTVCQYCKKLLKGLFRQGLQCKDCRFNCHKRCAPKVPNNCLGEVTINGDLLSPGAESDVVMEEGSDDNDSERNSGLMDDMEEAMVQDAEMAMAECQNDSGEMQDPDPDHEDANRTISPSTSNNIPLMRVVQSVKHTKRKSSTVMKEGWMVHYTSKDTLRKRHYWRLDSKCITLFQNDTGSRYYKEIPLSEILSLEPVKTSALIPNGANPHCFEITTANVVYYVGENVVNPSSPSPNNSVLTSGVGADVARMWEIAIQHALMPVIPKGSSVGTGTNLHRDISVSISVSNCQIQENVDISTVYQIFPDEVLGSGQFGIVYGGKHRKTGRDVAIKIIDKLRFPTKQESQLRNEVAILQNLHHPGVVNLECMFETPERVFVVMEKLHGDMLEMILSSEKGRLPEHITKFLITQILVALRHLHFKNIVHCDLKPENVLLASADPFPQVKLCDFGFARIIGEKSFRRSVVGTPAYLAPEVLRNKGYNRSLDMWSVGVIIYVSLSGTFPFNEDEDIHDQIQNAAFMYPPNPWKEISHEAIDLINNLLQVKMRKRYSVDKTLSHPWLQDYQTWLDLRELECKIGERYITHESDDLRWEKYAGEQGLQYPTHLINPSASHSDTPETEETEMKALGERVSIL

[6] = target: Calcium/calmodulin-dependent protein kinase kinase 2 (Homo sapiens) (UniProt Q96RR4); assay: activity of CaMKK2(h) at 1.0 µM in the Eurofins Kinase panel
[7] = target: Transcription initiation factor TFIID subunit 1-like (Homo sapiens) (UniProt Q8IZX4); assay: activity of TAF1L(h) at 1.0 µM in the Eurofins Kinase panel
[8] = target: Protein kinase C beta type (Homo sapiens) (UniProt P05771); assay: activity of PKCbetaI(h) at 1.0 µM in the Eurofins Kinase panel
[9] = target: Serine/threonine-protein kinase haspin (Homo sapiens) (UniProt Q8TF76); assay: activity of Haspin(h) at 1.0 µM in the Eurofins Kinase panel
[10] = target: Calcium/calmodulin-dependent protein kinase type II subunit gamma (Homo sapiens) (UniProt Q13555); assay: activity of CaMKIIgamma(h) at 1.0 µM in the Eurofins Kinase panel
[11] = target: Serine/threonine-protein kinase STK11 (Homo sapiens) (UniProt Q15831); assay: activity of LKB1(h) at 1.0 µM in the Eurofins Kinase panel
[12] = target: Protein kinase C epsilon type (Homo sapiens) (UniProt Q02156); assay: activity of PKCepsilon(h) at 1.0 µM in the Eurofins Kinase panel
[13] = target: Serine/threonine-protein kinase BRSK1 (Homo sapiens) (UniProt Q8TDC3); assay: activity of BrSK1(h) at 1.0 µM in the Eurofins Kinase panel
Sequence of Serine/threonine-protein kinase BRSK1 (Homo sapiens) (Q8TDC3 whole entry): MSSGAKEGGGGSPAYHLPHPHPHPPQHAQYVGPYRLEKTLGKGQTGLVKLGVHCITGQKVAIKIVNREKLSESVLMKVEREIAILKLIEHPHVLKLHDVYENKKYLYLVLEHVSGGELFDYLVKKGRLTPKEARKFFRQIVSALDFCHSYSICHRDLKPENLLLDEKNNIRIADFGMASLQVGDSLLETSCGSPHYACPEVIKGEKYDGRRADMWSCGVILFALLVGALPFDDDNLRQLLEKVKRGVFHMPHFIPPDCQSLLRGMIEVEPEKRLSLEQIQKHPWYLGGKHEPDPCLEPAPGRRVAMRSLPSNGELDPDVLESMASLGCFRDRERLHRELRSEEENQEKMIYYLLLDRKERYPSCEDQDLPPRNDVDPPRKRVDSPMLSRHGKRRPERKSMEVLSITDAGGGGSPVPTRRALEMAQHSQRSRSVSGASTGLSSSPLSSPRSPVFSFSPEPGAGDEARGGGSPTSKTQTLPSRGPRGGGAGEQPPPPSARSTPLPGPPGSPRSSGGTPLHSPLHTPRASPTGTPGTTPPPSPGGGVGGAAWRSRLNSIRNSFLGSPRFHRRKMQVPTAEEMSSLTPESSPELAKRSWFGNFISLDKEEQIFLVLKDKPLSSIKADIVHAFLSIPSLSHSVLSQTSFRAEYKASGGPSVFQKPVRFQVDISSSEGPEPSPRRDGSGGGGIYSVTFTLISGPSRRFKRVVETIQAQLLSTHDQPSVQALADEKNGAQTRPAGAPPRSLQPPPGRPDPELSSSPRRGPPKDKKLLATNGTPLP

[14] = target: Serine/threonine-protein kinase 32B (Homo sapiens) (UniProt Q9NY57); assay: activity of STK32B(h) at 1.0 µM in the Eurofins Kinase panel
Sequence of Serine/threonine-protein kinase 32B (Homo sapiens) (Q9NY57 whole entry): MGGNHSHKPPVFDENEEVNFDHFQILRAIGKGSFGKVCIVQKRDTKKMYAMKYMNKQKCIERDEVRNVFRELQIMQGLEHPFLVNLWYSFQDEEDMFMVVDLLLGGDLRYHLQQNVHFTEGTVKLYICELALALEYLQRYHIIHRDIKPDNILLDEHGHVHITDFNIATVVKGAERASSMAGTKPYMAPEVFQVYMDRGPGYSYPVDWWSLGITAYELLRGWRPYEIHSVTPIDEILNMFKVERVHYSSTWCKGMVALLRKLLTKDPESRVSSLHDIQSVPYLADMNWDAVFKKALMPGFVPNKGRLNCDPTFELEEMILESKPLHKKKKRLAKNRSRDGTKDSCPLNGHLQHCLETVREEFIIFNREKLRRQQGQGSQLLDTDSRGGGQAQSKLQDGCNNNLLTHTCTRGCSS

[15] = target: Serine/threonine-protein kinase tousled-like 1 (Homo sapiens) (UniProt Q9UKI8); assay: activity of TLK1(h) at 1.0 µM in the Eurofins Kinase panel
Sequence of Serine/threonine-protein kinase tousled-like 1 (Homo sapiens) (Q9UKI8 whole entry): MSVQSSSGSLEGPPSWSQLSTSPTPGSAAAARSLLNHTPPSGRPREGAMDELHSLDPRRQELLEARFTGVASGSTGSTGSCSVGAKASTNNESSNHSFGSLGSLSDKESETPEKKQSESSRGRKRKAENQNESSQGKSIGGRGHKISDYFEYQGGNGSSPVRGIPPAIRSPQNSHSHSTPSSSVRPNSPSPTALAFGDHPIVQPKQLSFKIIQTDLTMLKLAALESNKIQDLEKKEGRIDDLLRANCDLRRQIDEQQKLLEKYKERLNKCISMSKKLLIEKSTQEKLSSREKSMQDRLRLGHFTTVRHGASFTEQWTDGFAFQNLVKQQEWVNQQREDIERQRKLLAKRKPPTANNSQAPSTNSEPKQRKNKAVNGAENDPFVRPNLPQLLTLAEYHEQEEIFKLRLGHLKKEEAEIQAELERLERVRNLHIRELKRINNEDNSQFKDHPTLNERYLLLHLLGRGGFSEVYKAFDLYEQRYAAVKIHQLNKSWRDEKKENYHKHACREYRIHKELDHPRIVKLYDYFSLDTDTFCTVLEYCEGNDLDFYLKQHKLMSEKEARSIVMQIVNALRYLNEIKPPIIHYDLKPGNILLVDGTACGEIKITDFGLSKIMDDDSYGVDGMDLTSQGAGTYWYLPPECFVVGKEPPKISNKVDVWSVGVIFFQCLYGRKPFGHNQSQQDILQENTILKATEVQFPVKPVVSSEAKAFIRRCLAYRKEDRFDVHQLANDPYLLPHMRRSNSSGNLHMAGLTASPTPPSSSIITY

[16] = target: Fibroblast growth factor receptor 4 (Homo sapiens) (UniProt P22455); assay: activity of FGFR4(h) at 1.0 µM in the Eurofins Kinase panel
[17] = target: Cyclin-dependent kinase 13/Cyclin-K (Homo sapiens) (UniProt Q14004+O75909); assay: activity of CDK13/cyclinK(h) at 1.0 µM in the Eurofins Kinase panel; assay type: protein-complex assay
[18] = target: Serine/threonine-protein kinase Nek1 (Homo sapiens) (UniProt Q96PY6); assay: activity of NEK1(h) at 1.0 µM in the Eurofins Kinase panel
Sequence of Serine/threonine-protein kinase Nek1 (Homo sapiens) (Q96PY6 whole entry): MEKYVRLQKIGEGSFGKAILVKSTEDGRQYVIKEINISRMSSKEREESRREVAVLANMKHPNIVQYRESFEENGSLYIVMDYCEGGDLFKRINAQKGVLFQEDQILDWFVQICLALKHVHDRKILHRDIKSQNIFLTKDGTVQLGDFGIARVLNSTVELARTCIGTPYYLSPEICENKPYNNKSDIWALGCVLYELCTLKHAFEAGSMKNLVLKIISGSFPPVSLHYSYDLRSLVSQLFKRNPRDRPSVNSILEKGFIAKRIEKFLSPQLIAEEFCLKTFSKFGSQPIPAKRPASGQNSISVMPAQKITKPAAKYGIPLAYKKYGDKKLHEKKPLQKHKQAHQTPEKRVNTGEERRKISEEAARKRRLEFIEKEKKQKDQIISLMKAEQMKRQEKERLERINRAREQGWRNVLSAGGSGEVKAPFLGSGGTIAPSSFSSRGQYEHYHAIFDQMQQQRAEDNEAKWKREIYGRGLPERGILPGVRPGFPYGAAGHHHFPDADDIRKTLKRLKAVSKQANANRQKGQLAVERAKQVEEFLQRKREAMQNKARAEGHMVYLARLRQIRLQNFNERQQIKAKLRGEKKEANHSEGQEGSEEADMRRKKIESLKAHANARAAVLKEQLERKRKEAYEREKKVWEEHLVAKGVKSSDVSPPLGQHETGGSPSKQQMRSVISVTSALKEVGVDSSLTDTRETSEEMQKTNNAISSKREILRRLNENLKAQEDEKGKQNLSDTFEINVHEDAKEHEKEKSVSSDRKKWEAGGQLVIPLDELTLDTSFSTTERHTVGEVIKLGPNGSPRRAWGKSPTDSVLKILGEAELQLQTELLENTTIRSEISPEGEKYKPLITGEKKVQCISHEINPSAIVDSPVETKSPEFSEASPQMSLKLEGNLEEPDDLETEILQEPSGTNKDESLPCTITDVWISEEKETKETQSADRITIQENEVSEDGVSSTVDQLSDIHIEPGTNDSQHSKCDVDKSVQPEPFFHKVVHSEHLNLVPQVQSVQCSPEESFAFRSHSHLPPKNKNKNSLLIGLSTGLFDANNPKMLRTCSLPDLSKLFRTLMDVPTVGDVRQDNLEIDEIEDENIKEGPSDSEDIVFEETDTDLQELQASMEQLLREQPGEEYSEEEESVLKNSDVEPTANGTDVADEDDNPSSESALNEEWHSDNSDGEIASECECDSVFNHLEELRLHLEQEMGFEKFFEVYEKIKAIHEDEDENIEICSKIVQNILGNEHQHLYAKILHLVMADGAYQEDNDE

[19] = target: Macrophage-stimulating protein receptor (Homo sapiens) (UniProt Q04912); assay: activity of Ron(h) at 1.0 µM in the Eurofins Kinase panel
[20] = target: Calcium/calmodulin-dependent protein kinase type IV (Homo sapiens) (UniProt Q16566); assay: activity of CaMKIV(h) at 1.0 µM in the Eurofins Kinase panel
Sequence of Calcium/calmodulin-dependent protein kinase type IV (Homo sapiens) (Q16566 whole entry): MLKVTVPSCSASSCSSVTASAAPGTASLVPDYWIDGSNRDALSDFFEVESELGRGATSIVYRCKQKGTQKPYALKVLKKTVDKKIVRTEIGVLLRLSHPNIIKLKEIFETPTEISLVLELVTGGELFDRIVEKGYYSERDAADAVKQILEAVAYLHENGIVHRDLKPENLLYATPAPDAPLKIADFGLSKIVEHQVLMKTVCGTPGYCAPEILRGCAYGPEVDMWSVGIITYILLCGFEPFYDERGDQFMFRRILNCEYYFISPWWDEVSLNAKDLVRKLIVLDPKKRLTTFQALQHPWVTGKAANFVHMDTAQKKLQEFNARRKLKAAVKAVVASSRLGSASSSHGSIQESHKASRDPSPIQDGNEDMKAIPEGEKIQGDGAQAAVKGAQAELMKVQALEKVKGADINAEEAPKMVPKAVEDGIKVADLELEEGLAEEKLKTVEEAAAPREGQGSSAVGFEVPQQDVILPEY

[21] = target: Cyclin-dependent kinase 5/CDK5 activator 1 (Homo sapiens) (UniProt Q00535+Q15078); assay: activity of CDK5/p35(h) at 1.0 µM in the Eurofins Kinase panel; assay type: protein-complex assay
[22] = target: Cyclin-dependent kinase 2/cyclin E (Homo sapiens) (UniProt P24864+P24941+O96020); assay: activity of CDK2/cyclinE(h) at 1.0 µM in the Eurofins Kinase panel; assay type: protein-complex assay
[23] = target: CDK7/Cyclin H/MNAT1 (Homo sapiens) (UniProt P51946+P50613+P51948); assay: activity of CDK7/cyclinH/MAT1(h) at 1.0 µM in the Eurofins Kinase panel; assay type: protein-complex assay
[24] = target: Tyrosine-protein kinase JAK1 (Homo sapiens) (UniProt P23458); assay: activity of JAK1(h) at 1.0 µM in the Eurofins Kinase panel

## Cc1cc2c(-c3ccc(NC(=O)[C@H](N)CC(C)(C)C)cc3C)ccnc2[nH]1
[1]
  activity: 113%
[2]
  activity: 86%
[3]
  activity: 101%
[4]
  activity: 97%
[5]
  activity: 109%
[6]
  activity: 96%
[7]
  activity: 101%
[8]
  activity: 90%
[9]
  activity: 140%
[10]
  activity: 106%
[11]
  activity: 99%
[12]
  activity: 97%
[13]
  activity: 96%
[14]
  activity: 115%
[15]
  activity: 82%
[16]
  activity: 114%
[17]
  activity: 99%
[18]
  activity: 94%
[19]
  activity: 111%
[20]
  activity: 99%
[21]
  activity: 79%
[22]
  activity: 92%
[23]
  activity: 95%
[24]
  activity: 85%
